From patent publication US20260297134A1, “CYCLIC PEPTIDES AS PET IMAGING AGENTS OF GRANZYME B” (Merck Sharp & Dohme LLC, priority 2023, published 2026)
Bridge positions count the residues as written; N and C are the ends. Square brackets hold non-standard residues; d marks the D form. Peptide text beside a SMILES is read from it. * marks the point of attachment. X1 = O=C(O)CN1CCN(CC(=O)O)CC(Cc2ccc(NC(=S)*)cc2)N(CC(=O)O)CC1; NMeF = CN[C@@H](Cc1ccccc1)C(=O)O

Tests used:
[1] = Dynamic PET/CT scan in healthy rhesus monkey, biodistribution and clearance; type: in vivo, male rhesus monkey; conditions: i.v.
Method: Healthy non-human primate: A 3 h dynamic PET/CT scan was performed in a healthy male rhesus monkey to determine whole body biodistribution and clearance properties in an additional species. Approximately 6 mCi of ^18F-labeled anti-granzyme-B peptide was intravenously injected in the animal. Attenuation correction was performed using low-dose CT scan. Regions of interests (ROI) were manually drawn over tissues of interest to determine mean standardized uptake value (SUVmean).

[2] = target: Human granzyme B (Homo sapiens, UniProt P10144); test: Granzyme B Biochemical Inhibition Assay; conditions: granzyme B 8 nM; 30 min preincubation, room temperature
Chain of Human granzyme B (P10144 21-247): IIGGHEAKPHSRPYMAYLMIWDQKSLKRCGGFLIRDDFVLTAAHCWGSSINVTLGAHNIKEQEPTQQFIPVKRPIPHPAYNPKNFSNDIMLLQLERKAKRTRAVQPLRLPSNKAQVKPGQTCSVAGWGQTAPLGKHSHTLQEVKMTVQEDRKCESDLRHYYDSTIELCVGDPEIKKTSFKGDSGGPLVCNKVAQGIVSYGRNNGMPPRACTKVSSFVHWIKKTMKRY
Method: Compounds to be tested as inhibitors were manually prepared in a 2-fold serial dilutions in DMSO, spanning 200 μM to 0.39 μM in a Labcyte Echo qualified low dead volume 384-well plate. Then an ECHO acoustic liquid handler was used to dispense 125 nL of each compound from 384-well plate into a PerkinElmer Proxiplate-384 Plus F assay plate. For the positive control of inhibitor, (S)-3-((3S,6S)-3-((2S,3S)-2-acetamido-3-methylpentanamido)-4-oxo-1,2,3,4,6,7-hexahydroazepino[3,2,1-hi]indole-6-carboxamido)-4-oxobutanoic acid (see C. A. Willoughby et al./Bioorg. Med. Chem. Lett. 12 (2002) 2197-2200 2199) was used at 2 μM assay concentration. For no inhibition control, DMSO was used. Each compound was run in duplicate.
Once the compounds were dispensed in the plates, enzyme mix and substrate mix were prepared. […] Subsequently, 3.125 μL of substrate mix were added to each well using the BioRaptr, reaching a final assay volume of 12.5 μL. and the plate was monitored using a Pherastar FS by 1 read per minute for 30 minutes in fluorescence mode, excitation wavelength is 400 nm and emission wavelength is 510 nm.
The data analysis was performed first in excel, where the slopes of the measured fluorescence from each sample were determined using MARS software from BMG LABTECH. […]

[3] = target: human Granzyme B (hGranzyme B) (Homo sapiens, UniProt P10144); test: Surface Plasmon Resonance (SPR) binding to human Granzyme B; conditions: Table 8, 25° C.
Chain of human Granzyme B (hGranzyme B) (P10144 21-247): as above

| Compound | excretion route ([1]; PET images) | blood pool clearance ([1]; approximately 6 mCi, PET) | liver uptake duration ([1]; quantitative analyses of PET images) | uptake in liver and kidneys ([1]; within first 20 minutes of injection) | IC50 [2] [nM] | Kd [3] [nM] |
| --- | --- | --- | --- | --- | --- | --- |
| CC(C)[C@@H]1NC(=O)[C@H](CC(=O)O)NC(=O)[C@H](Cc2ccc(O)cc2)NC(=O)[C@H](Cc2ccc(O)cc2)NC(=O)[C@H](Cc2ccccc2)N(C)C(=O)[C@H](Cc2ccccc2)N(C)C(=O)[C@H](Cc2ccccc2)NC(=O)CSC[C@@H](C(=O)NCC(=O)NCC(=O)N[C@@H](CCCCNC(=S)Nc2ccc(CC3CN(CC(=O)O)CCN(CC(=O)O)CCN3CC(=O)O)cc2)C(N)=O)NC(=O)[C@H](Cc2c[nH]cn2)NC(=O)[C@H](Cc2ccccc2)N(C)C(=O)[C@H](Cc2ccc(O)cc2)NC(=O)[C@H](C(C)C)NC(=O)[C@H](CC(=O)O)NC(=O)[C@H](C(C)C)NC(=O)[C@H](CC(=O)O)NC1=O (stereo partly drawn) [Compound 6a, *F.NMeF.NMeF.Y.Y.D.V.D.V.D.V.Y.NMeF.H.*C.G.G.K(^18F-AlF-NOTA)-NH2] ({CH2CO}-F[NMeF][NMeF]YYDVDVDVY[NMeF]HCGGK(X1)-NH2; thioether N-15) | primarily excreted through renal route | rapid blood pool clearance | prolonged liver uptake | high uptake in liver and kidneys within first 20 minutes of injection | – | – |
| CC(C)[C@@H]1NC(=O)[C@H](CC(=O)O)NC(=O)[C@H](Cc2ccc(O)cc2)NC(=O)[C@H](Cc2ccc(O)cc2)NC(=O)[C@H](Cc2ccccc2)N(C)C(=O)[C@H](Cc2ccccc2)N(C)C(=O)[C@H](Cc2ccccc2)NC(=O)CSC[C@@H](C(=O)NCC(N)=O)NC(=O)[C@H](Cc2c[nH]cn2)NC(=O)[C@H](Cc2ccccc2)N(C)C(=O)[C@H](Cc2ccc(O)cc2)NC(=O)[C@H](C(C)C)NC(=O)[C@H](CC(=O)O)NC(=O)[C@H](C(C)C)NC(=O)[C@H](CC(=O)O)NC1=O [Compound 1a, *F.NMeF.NMeF.Y.Y.D.V.D.V.D.V.Y.NMeF.H.*C.G-NH2] ({CH2CO}-F[NMeF][NMeF]YYDVDVDVY[NMeF]HCG-NH2; thioether N-15) | – | – | – | – | 113 | 0.5 |
